Calls of active or inactive are those of the source. How the calls were made is not given here.
Biological target: Toxin B (TcdB) glycohydrolase, Clostridioides difficile 630
Assay: TcdB glycohydrolase inhibitors, dose response, biochemical, cherry-pick, plate reader (AID 720512)
Conditions: recombinant TcdB glycohydrolase activity; for activity change, negative = inhibition: at 19.5 µM (top of the series)

Structure (SMILES)	AC50	activity change, negative = inhibition
Cc1cc(N/N=C/c2ccc(O)cc2)c2cccc(C)c2n1	> 39 µM (inactive)	–
S=c1[nH]nc(NC2CCCCC2)s1	–	inactive
O=C(C[C@@H]1C[C@H]2c3cc(NC(=O)c4ccc5c(c4)OCO5)ccc3O[C@H]2[C@H](CO)O1)NCc1cccc(F)c1	–	inactive
COc1cc(/C=N/NC(=O)c2cccc([N+](=O)[O-])c2)ccc1O	> 39 µM (inactive)	–
Cc1cc(C)nc(SCC(=O)c2ccc(O)c(O)c2)n1	–	inactive
CN1CCN(CC(=O)Nc2cc(N(C)C)nc3ccccc23)CC1	–	inactive
COc1ccc(C2=NS(=O)(=O)N(C)C(C(=O)NC(C)c3ccccc3)=C2)cc1 (configuration not stated)	–	inactive
CC1CC(=O)N(c2ccc(NCCc3ccc(O)cc3)c([N+](=O)[O-])c2)C1=O (configuration not stated)	–	inactive
O=C(O)c1ccc(-n2nnc3ccccc32)c([N+](=O)[O-])c1	–	inactive
Cc1ccc(NNC(=O)c2ccno2)c(C)c1	–	inactive
Cc1ccc(/C=N/NC(=O)c2cccc(S(=O)(=O)Nc3ccccc3Cl)c2)o1	–	inactive
COc1cc(/C=N/NC(=O)C2COc3ccccc3O2)ccc1O (configuration not stated)	–	inactive
CCC(=O)Nc1ccc2c(c1)OC[C@@H](C)N(C(=O)NC(C)C)C[C@@H](C)[C@@H](OC)CN(C)C2=O	–	inactive
Cc1ccc2c(C)c3ccc4ccccc4c3c[n+]2c1	–	inactive
O=C(CSc1ccccc1)Nc1cc(S(=O)(=O)N2CCOCC2)ccc1N1CCOCC1	–	inactive
CC(C)CNC(=O)c1c(F)c(F)c(F)c(F)c1F	–	inactive

Structure (SMILES)	AC50	activity change, negative = inhibition
O=c1c2ccccc2nc(/C=C/c2ccc(O)cc2)n1-c1ccccc1O	–	inactive
CCCS(=O)(=O)NC(=O)C1(C)CCN(C(=O)c2ccco2)C1 (configuration not stated)	–	inactive
O=C(NC(=S)NNS(=O)(=O)c1ccccc1)c1cccnc1	–	inactive
Cc1ccc(-c2csc(NC(=O)/C=C/c3ccco3)c2C(=O)O)cc1	–	inactive
COc1ccccc1CNC(=O)CN(c1ccc(C)cc1)S(=O)(=O)c1c(C)n[nH]c1C	–	inactive
Cc1ccc(C(=O)NCCn2cc(SCC(=O)Nc3cc(C)on3)c3ccccc32)cc1	–	inactive
Nc1ccc(OC(=O)Nc2ccc(O)cc2)cc1	–	inactive
CCCNC(=O)C[C@H]1CC[C@@H]2[C@@H](COc3ccc(NC(=O)c4ccc5c(c4)OCO5)cc3C(=O)N2C)O1	> 39 µM (inactive)	–
O=C(O)c1ccccc1C(=O)c1ccc2c(c1)N(Cc1cccc(F)c1)C(=O)CO2	–	inactive
Cc1noc(/C=C/c2ccccc2F)c1S(=O)(=O)N1CCC(C(=O)N2CCN(C)CC2)CC1	–	inactive
CC1C(=O)C(C)C(c2ccc([N+](=O)[O-])cc2)NC1c1ccc([N+](=O)[O-])cc1 (configuration not stated)	–	inactive
Cc1ccc(S(=O)(=O)N2CC(CO)=CCC2c2ccccc2)cc1 (configuration not stated)	–	inactive
COC(=O)[C@@]12CCCCN1[C@H](c1ccc(-c3ccccc3)c(OC)c1)[C@H]1C(=O)N(C)C(=O)[C@H]12	–	inactive
CCC(=O)N1CC[C@@H]2[C@@H](CO)N(C)c3ccc(-c4ccccc4)cc3[C@@H]21	> 42 µM (inactive)	–
COc1cc(/C=C/C(=O)OCC(=O)NC(=O)NC(C)C)ccc1O	> 39 µM (inactive)	–
CSc1cccc(NC(=O)CCc2ccccc2)c1	–	inactive
